Measurements as given in patent US10334853B2, “Compositions and methods for treating ectoparasite infestation” (Larada Sciences, Inc., priority 2016, dated 2019).

System: live parasites, most commonly a louse
Experiment: Petri dish screening: drops of test formulation on live parasites
Type: in vivo
Settings: evaluation of solvents, method of Example 1
Text: In one procedure that provides an evaluative method for determining effectiveness of commercial products, live parasites were removed from subjects' hair and placed into a Petri dish. One to two drops of test formulation were placed upon the test insect, most commonly a louse. The specimen was observed under magnification for initial movement, and was kept under observation for up to fifteen additional minutes. […] The effectiveness of the treatment was then rated on a 0-4 scale, with a score of 0 denoting total ineffectiveness and a score of 4 denoting total kill.

CCCCOC(=O)CC(C)O (stereo not shown) [Example B1, Butyl 3-hydroxybutyrate]
Efficacy Score: 0 (No elimination of live lice after 5 minutes (100% live lice remain))
